Structures can show the parent of a compound that is named as a salt.
Columns and labels:
[1] = target: T1, human recombinant serotonin 5-HT2A receptor (Homo sapiens, UniProt P28223); assay: Binding affinity for serotonin 5-HT2A receptor ([3H]Ketanserin); conditions: CHO-K1 expressed receptor, 1 nM [3H]Ketanserin
T1 construct: purchased PerkinElmer Life and Analytical Sciences, USA; host or cells: CHO-K1
Protocol: Receptor binding affinities of the compounds for serotonin receptors were measured by the method described in the literature [Park W K et al., Pharmacol Biochem Behav. 2005, 82(2), 361-372].
For serotonin 5-HT2A binding, an aliquot of human recombinant serotonin 5-HT2A receptor (PerkinElmer Life and Analytical Sciences, USA) expressed in CHO-K1 cells (5 ug/well) and 1 nM [^3H]Ketanserin (PerkinElmer) were used in the presence of mianserin (20 uM) as nonspecific. The reaction mixture was incubated for 60 min at 27 using 50 mM Tris-HCl (pH 7.4) buffer containing 4 mM CaCl2 and 0.1% ascorbic acid, and harvested through filtermate A glass fiber filter (Wallac, Finland) presoaked in 0.5% polyethyleneimine (PEI) by microbeta filtermate-96 harvester (PerkinElmer) to terminate the reaction, and then washed with ice cold 50 mM Tris-HCl buffer solution (pH 7.4). The filter was then covered with MeltiLex, sealed in a sample bag, dried in an oven. The radioactivity retained in the filter was finally counted using MicroBeta Plus (Wallac).
(§1) The binding affinity (IC50) of a compound for the receptor was calculated by computerized nonlinear regression analysis (GraphPad Prism Program, San Diego, USA) using 7-8 varied concentrations of the compound run in duplicate tubes.

[2] = target: T2, human recombinant 5-HT2C receptor (Homo sapiens, UniProt P28335); assay: Binding affinity for serotonin 5-HT2C receptor ([3H]Mesulergine); conditions: CHO-K1 membranes, 1.3 nM [3H]Mesulergine
T2 construct: purchased PerkinElmer
T2 sequence (P28335 33-458): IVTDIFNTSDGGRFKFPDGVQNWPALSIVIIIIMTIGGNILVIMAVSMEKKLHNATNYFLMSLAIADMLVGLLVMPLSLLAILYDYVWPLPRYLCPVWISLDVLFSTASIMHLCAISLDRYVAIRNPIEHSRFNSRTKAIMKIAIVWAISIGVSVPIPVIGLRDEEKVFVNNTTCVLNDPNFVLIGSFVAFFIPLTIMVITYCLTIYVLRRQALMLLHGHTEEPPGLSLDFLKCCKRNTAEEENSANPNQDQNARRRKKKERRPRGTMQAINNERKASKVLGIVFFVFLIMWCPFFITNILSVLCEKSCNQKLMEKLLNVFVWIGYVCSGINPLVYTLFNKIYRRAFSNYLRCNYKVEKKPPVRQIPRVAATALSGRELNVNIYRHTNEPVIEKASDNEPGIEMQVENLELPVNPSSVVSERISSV
Protocol: Receptor binding affinities of the compounds for serotonin receptors were measured by the method described in the literature [Park W K et al., Pharmacol Biochem Behav.
as §1
Nonspecific binding was determined using 100 uM mianserin. The incubations were performed for 60 min at 27, and these were terminated by rapid filtration through filtermate. A glass fiber filter presoaked in 0.5% PEI.

[3] = target: T3, human serotonin transporter (Homo sapiens, UniProt P31645); assay: Binding affinity for serotonin transporter ([3H]Imipramine); conditions: HEK-293 membranes, 2 nM [3H]Imipramine
T3 construct: purchased PerkinElmer; host or cells: HEK-293
Protocol: For serotonin transporter binding assays, a reaction mixture with a final volume of 0.25 ml was prepared by mixing a test compound, human serotonin transporter membrane expressed in HEK-293 cells (PerkinElmer, 5 ug/well), [^3H]Imipramine (PerkinElmer, 2 nM) and 50 mM Tris-HCl (pH 7.4) buffer containing 120 mM NaCl and 5 mM KCl. The reaction mixture was incubated for 30 min at 27, and harvested through filtermate. A glass fiber filter presoaked in 0.5% PEI with ice cold 50 mM Tris-HCl buffer (pH 7.4) containing 0.9% NaCl.

T1 sequence (P28223 whole entry): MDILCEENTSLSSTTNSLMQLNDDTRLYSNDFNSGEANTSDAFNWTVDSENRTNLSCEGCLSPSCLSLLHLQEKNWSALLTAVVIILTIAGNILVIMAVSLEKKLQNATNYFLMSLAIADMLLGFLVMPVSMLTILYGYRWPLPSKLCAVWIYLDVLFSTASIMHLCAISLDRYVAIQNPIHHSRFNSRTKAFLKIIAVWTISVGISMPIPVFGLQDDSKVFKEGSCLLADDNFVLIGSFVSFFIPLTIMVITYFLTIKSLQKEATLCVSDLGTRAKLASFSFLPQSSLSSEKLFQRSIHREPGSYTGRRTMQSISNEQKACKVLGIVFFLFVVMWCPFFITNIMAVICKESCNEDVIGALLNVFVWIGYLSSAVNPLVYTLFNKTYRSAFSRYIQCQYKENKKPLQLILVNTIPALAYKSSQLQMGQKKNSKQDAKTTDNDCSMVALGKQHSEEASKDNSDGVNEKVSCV
T3 sequence (P31645 whole entry): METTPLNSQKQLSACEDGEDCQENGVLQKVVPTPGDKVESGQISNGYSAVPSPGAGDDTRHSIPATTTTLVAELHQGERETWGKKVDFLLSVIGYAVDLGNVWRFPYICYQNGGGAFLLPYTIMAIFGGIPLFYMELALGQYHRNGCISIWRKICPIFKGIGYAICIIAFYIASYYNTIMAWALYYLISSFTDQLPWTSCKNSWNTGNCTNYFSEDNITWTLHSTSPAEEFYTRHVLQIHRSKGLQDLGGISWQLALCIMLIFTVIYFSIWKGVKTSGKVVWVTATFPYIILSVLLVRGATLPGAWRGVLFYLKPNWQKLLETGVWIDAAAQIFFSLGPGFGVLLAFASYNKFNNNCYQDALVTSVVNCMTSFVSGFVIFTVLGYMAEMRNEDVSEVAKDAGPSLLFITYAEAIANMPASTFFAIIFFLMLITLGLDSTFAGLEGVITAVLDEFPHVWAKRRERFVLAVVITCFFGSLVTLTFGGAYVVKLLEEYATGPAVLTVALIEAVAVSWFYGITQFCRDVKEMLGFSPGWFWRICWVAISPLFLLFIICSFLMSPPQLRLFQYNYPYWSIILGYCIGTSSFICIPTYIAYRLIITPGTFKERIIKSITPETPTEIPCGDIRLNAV

Cc1c(C(=O)NCCCN2CCN(c3cccc(Cl)c3Cl)CC2)cc(-c2ccccc2)n1C [Example 10, N-(3-(4-(2,3-dichlorophenyl)piperazin-1-yl)propyl)-1,2-dimethyl-5-phenyl-1H-pyrrole-3-carboxamide]
IC50 [1]: 46.2 nM | IC50 [2]: 12 nM | IC50 [3]: 61.7 nM

COc1cccc(-c2cc(C(=O)NCCCN3CCN(c4cccc(Cl)c4Cl)CC3)c(C)[nH]2)c1 [Example 83, N-(3-(4-(2,3-dichlorophenyl)piperazin-1-yl)propyl)-5-(3-methoxyphenyl)-2-methyl-1H-pyrrole-3-carboxamide hydrochloride]
IC50 [1]: 20 nM | IC50 [2]: 20 nM | IC50 [3]: 59 nM

Cc1c(C(=O)NCCCN2CCN(c3cccc(Cl)c3Cl)CC2)cc(-c2ccccc2)n1Cc1ccccc1 [Example 19, 1-Benzyl-N-(3-(4-(2,3-dichlorophenyl)piperazin-1-yl)propyl)-2-methyl-5-phenyl-1H-pyrrole-3-carboxamide]
IC50 [1]: 354 nM | IC50 [2]: 220 nM | IC50 [3]: 125 nM

Cc1[nH]c(-c2ccccc2)cc1C(=O)NCCCCN1CCN(c2cccc(Cl)c2Cl)CC1 [Example 41, N-(4-(4-(2,3-dichlorophenyl)piperazin-1-yl)butyl)-2-methyl-5-phenyl-1H-pyrrole-3-carboxamide hydrochloride]
IC50 [1]: 13 nM | IC50 [2]: 14 nM | IC50 [3]: 21 nM

Cc1[nH]c(-c2ccc(Cl)cc2)cc1C(=O)NCCCN1CCN(c2cccc(Cl)c2Cl)CC1 [Example 45, 5-(4-chlorophenyl)-N-(3-(4-(2,3-dichlorophenyl)piperazin-1-yl)propyl)-2-methyl-1H-pyrrole-3-carboxamide hydrochloride]
IC50 [1]: 105 nM | IC50 [2]: 106 nM | IC50 [3]: 56 nM

COc1cccc(N2CCN(CCCNC(=O)c3cc(-c4ccccc4)n(C)c3C)CC2)c1OC [Example 158, N-(3-(4-(2,3-dimethoxyphenyl)piperazin-1-yl)propyl)-1,2-dimethyl-5-phenyl-1H-pyrrole-3-carboxamide]
IC50 [1]: 666 nM | IC50 [2]: 782 nM | IC50 [3]: 1260 nM

CCCn1c(-c2ccccc2)cc(C(=O)NCCCN2CCN(c3cccc(OC)c3OC)CC2)c1C [Example 159, N-(3-(4-(2,3-dimethoxyphenyl)piperazin-1-yl)propyl)-2-methyl-5-phenyl-1-propyl-1H-pyrrole-3-carboxamide]
IC50 [1]: 874 nM | IC50 [2]: 977 nM | IC50 [3]: 1980 nM

CCCn1c(-c2cccc(OC)c2)cc(C(=O)NCCCN2CCN(c3cccc(Cl)c3Cl)CC2)c1C [Example 82, N-(3-(4-(2,3-dichlorophenyl)piperazin-1-yl)propyl)-5-(3-methoxyphenyl)-2-methyl-1-propyl-1H-pyrrole-3-carboxamide hydrochloride]
IC50 [1]: 138 nM | IC50 [2]: 43 nM | IC50 [3]: 196 nM

CCCn1c(-c2ccccc2)cc(C(=O)NCCCCN2CCN(c3cccc(C)c3C)CC2)c1C [Example 33, N-(4-(4-(2,3-dimethylphenyl)piperazin-1-yl)butyl)-2-methyl-5-phenyl-1-propyl-1H-pyrrole-3-carboxamide hydrochloride]
IC50 [1]: 792 nM | IC50 [2]: 149 nM | IC50 [3]: 76 nM

O=C(NCCCN1CCN(c2cccc(Cl)c2Cl)CC1)c1cc(-c2ccccc2)[nH]c1Cl [Example 114, 2-chloro-N-(3-(4-(2,3-dichlorophenyl)piperazin-1-yl)propyl)-5-phenyl-1H-pyrrole-3-carboxamide]
IC50 [1]: 22 nM | IC50 [2]: 107 nM | IC50 [3]: 59 nM

Cc1cccc(N2CCN(CCCNC(=O)c3cc(-c4ccccc4)n(C)c3C)CC2)c1C [Example 3, N-(3-(4-(2,3-dimethylphenyl)piperazin-1-yl)propyl)-1,2-dimethyl-5-phenyl-1H-pyrrole-3-carboxamide]
IC50 [1]: 57 nM | IC50 [2]: 133 nM | IC50 [3]: 11.8 nM

CCCCn1c(-c2ccccc2)cc(C(=O)NCCCN2CCN(c3cccc(Cl)c3Cl)CC2)c1C [Example 71, 1-butyl-N-(3-(4-(2,3-dichlorophenyl)piperazin-1-yl)propyl)-2-methyl-5-phenyl-1H-pyrrole-3-carboxamide hydrochloride]
IC50 [1]: 188 nM | IC50 [2]: 32 nM | IC50 [3]: 642 nM

CCCCc1cc(C(=O)NCCCN2CCN(c3cccc(Cl)c3Cl)CC2)c(C)[nH]1 [Example 137, 5-butyl-N-(3-(4-(2,3-dichlorophenyl)piperazin-1-yl)propyl)-2-methyl-1H-pyrrole-3-carboxamide]
IC50 [1]: 68 nM | IC50 [2]: 133 nM | IC50 [3]: 62 nM

Cc1[nH]c(-c2ccccc2)cc1C(=O)NCCN1CCN(c2cccc(Cl)c2Cl)CC1 [Example 38, N-(2-(4-(2,3-dichlorophenyl)piperazin-1-yl)ethyl)-2-methyl-5-phenyl-1H-pyrrole-3-carboxamide hydrochloride]
IC50 [1]: 40 nM | IC50 [2]: 37 nM | IC50 [3]: 87 nM

Cc1[nH]c(C(C)(C)C)cc1C(=O)NCCCN1CCN(c2cccc(Cl)c2Cl)CC1 [Example 127, 5-tert-butyl-N-(3-(4-(2,3-dichlorophenyl)piperazin-1-yl)propyl)-2-methyl-1H-pyrrole-3-carboxamide hydrochloride]
IC50 [1]: 107 nM | IC50 [2]: 1390 nM | IC50 [3]: 860 nM

Cc1[nH]c(-c2ccccc2)cc1C(=O)NCCCN1CCN(c2cccc(Cl)c2Cl)CC1 [Example 25, N-(3-(4-(2,3-dichlorophenyl)piperazin-1-yl)propyl)-2-methyl-5-phenyl-1H-pyrrole-3-carboxamide]
IC50 [1]: 300 nM | IC50 [2]: 599 nM | IC50 [3]: 133 nM

Cc1c(C(=O)NCCCN2CCN(c3cccc(Cl)c3Cl)CC2)cc(-c2ccncc2)n1C [Example 106, N-(3-(4-(2,3-dichlorophenyl)piperazin-1-yl)propyl)-1,2-dimethyl-5-(pyridin-4-yl)-1H-pyrrole-3-carboxamide]
IC50 [1]: 39 nM | IC50 [2]: 175 nM | IC50 [3]: 85 nM

CCCn1c(-c2ccccn2)cc(C(=O)NCCN2CCN(c3cccc(Cl)c3Cl)CC2)c1C [Example 96, N-(2-(4-(2,3-dichlorophenyl)piperazin-1-yl)ethyl)-2-methyl-1-propyl-5-(pyridin-2-yl)-1H-pyrrole-3-carboxamide dihydrochloride]
IC50 [1]: 410 nM | IC50 [2]: 619 nM | IC50 [3]: 381 nM

Cc1[nH]c(-c2ccccc2)c(C)c1C(=O)NCCCCN1CCN(c2cccc(Cl)c2Cl)CC1 [Example 78, N-(4-(4-(2,3-dichlorophenyl)piperazin-1-yl)butyl)-2,4-dimethyl-5-phenyl-1H-pyrrole-3-carboxamide hydrochloride]
IC50 [1]: 19 nM | IC50 [2]: 10 nM | IC50 [3]: 74 nM

CCCn1c(-c2ccccc2)cc(C(=O)NCCCN2CCN(c3ccc(OC)cc3)CC2)c1C [Example 87, N-(3-(4-(4-methoxyphenyl)piperazin-1-yl)propyl)-2-methyl-5-phenyl-1-propyl-1H-pyrrole-3-carboxamide dihydrochloride]
IC50 [1]: 647 nM | IC50 [2]: 4830 nM | IC50 [3]: 628 nM

CCn1c(-c2ccccc2)cc(C(=O)NCCCN2CCN(c3cccc(Cl)c3)CC2)c1C [Example 4, N-(3-(4-(3-chlorophenyl)piperazin-1-yl)propyl)-1-ethyl-2-methyl-5-phenyl-1H-pyrrole-3-carboxamide]
IC50 [1]: 92 nM | IC50 [2]: 192 nM | IC50 [3]: 25.8 nM
